# Reference: US20240423952A1, “COMPOSITIONS AND METHODS FOR TREATING CONGENITAL DISORDERS” (Ibagen Pharmaceuticals, Inc., priority 2021, published 2024)
# Several values for one entry are separate records, joined by “and”; a condition that tells them apart may be missing. Equal values may be shown once. Where a name gives a salt, the structure may show the parent alone.
# Assays:
# [1] = test system: EG9152 GOF worms (C. elegans NALCN(gf) model); test: Screen of putative NALCN antagonists by motor behavior, GOF worms on compound agar; assay type: in vivo
# Procedure: (§1) Compounds were dissolved in the vehicle in which they were the most soluble (DMSO or molecular grade water). […] Microwave to dissolve (note: this will boil over rapidly). The screen is performed in a 24-well flat-bottom plate. […] Proceed to next step quickly. […] Immediately begin mixing with pipette tip until the compound dissolves (at this point the mixture should be clear). Fill the remainder of the plate (I usually prepare duplicate wells for each compound) and cover with aluminum foil to protect the compounds from light. Leave at room temperature overnight to allow the plate to dry before screening. […] Prepare at least 4 small plates for each line. […] Pick a line to start with. […] Start timing as soon as a well has been filled. […] Touch the tail of each worm gently with a platinum wire to promote motion. Record any observations. (I like to record the proportion of worms that retain the original phenotype, the proportion that show full body paralysis/death, and the proportion that show paralysis of the neck only).
# N2 non-transgenic worms = test: Screen of putative NALCN antagonists by motor behavior, N2 control worms on compound agar; assay type: in vivo, C. elegans
# Procedure: as §1
# Outward K+ currents = test: Electrophysiology tests, whole-cell recording of E16 embryonic cortical neurons; assay type: cell-based; conditions: mouse E16 cortical neurons, ramp −60~+80 mV, quantified at +80 mV (figure legends)
# Procedure: Briefly, the cerebral cortex was isolated from embryos of E16 pregnant mouse (C57/BL6) and cut into small cubes. After being digested in 0.05% Trypsin for 25-30 mins in 37° C. in incubator, the Trypsin was neutralized with 1-2 ml DMEM (containing 10% FBS. The pellets were then triturated with a pipette for 10-15 time and then diluted into plating media (DMEM with 10% FBS). The cell suspension was sieved through a […] nylon filter and plated onto cover slips coated with poly-D-lysine (PDL) in 35 mm dishes at density of 2×10^5 cells per dish. After culturing for 2 hrs in incubator, the plating media was replaced with the following media: Neurobasal media supplemented with 2% B27. Neurobasal media was changed every 3 days until the experiment start.
# Membrane potentials of neurons were recorded in whole-cell configuration at 20° C.-22° C. in a mouse E16 embryonic cortical neuron preparation. The pipette solution contained (in mM): K-Gluconate 115; KCl 25; CaCl2) 0.1; MgCl2 5; BAPTA 1; HEPES 10; Na2ATP 5; Na2GTP 0.5; cAMP 0.5; cGMP 0.5, pH 7.2 with KOH, 320 mOsm. The bath solution consisted of (in mM): NaCl 150; KCl 5; CaCl2) 5; MgCl2 1; glucose 10; sucrose 5; HEPES 15, pH 7.3 with NaOH, 330 mOsm. For zero and 15 Na+ solution, extracellular Na+ ([Na+]o) was replaced with N-methyl-D-glucamine (NMDG+) or Tris+. RMP was recorded at 0 pA. […]
smiles,measurement,setting,value
CN1CCOC(c2ccccc2)c2ccccc2C1 (centres unmarked) [Nefopam],proportion of worms: LOF,"[1]; 3.3 mM, 20 min, Trial 3","rescue, 30%"
same,proportion of worms: GOF,"[1]; 3.3 mM, 20 min, Trial 4","rescue, 31% GOF."
same,proportion of worms: rescue,"[1]; 3.3 mM, 20 min, Trials 3-4",20 min: 70% and 20 min: 69%
same,proportion of worms: GOF,"[1]; 3.3 mM, 40 min, Trial 3","rescue, 8% GOF,"
same,proportion of worms: LOF,"[1]; 3.3 mM, 40 min, Trial 3",67% LOF.
same,proportion of worms: rescue,"[1]; 3.3 mM, 40 min, Trials 3-4 (Trial 4: sluggish)",40 min: 100% and 40 min: 25%
same,proportion of worms: rescue,"[1]; 6.65 mM, 20 min, Trials 1-2",20 min: 33% and 20 min: 90%
same,proportion of worms: rescue,"[1]; 6.65 mM, 50 min, Trial 2",50 min: 60%
same,proportion of worms: “rescue”,"N2 non-transgenic worms; 3.3 mM, 20 min, Trials 3-4",20 min: 15% and 20 min: 7%
same,proportion of worms: “rescue”,"N2 non-transgenic worms; 6.65 mM, 20 min, Trials 1-2",20 min: 9% and 20 min: 23%
same,proportion of worms: LOF,"N2 non-transgenic worms; 6.65 mM, 50 min, Trials 1-2",50 min: 100%
same,effect on Outward K+ currents,Outward K+ currents,blocked
CCOC(=O)c1ccc(N)cc1 [Benzocaine],proportion of worms: rescue,"[1]; 2.4 mM, 20 min, Trials 3-4",20 min: 40% and 20 min: 33%
same,proportion of worms: rescue,"[1]; 2.4 mM, 40 min, Trials 3-4",40 min: 8% and 40 min: 11%
same,Rescue worms still move fairly ...,"[1]; 4.71 mM, 30 min, Trial 1",quickly.
same,amplitude of body bends overall,"[1]; 4.71 mM, 30 min, Trial 1",Reduced
same,proportion of worms: rescue,"[1]; 4.71 mM, 30 min, Trials 1-2",30 min: 38% and 30 min: 8%
same,proportion of worms: LOF,"[1]; 4.71 mM, 1 hr, Trials 1-2",1 hr: 100%
same,paralysis of neck and reduced body bend amplitude but not as obvious a phenotype as Verapamil,[1]; remark for the trials at 4.71 mM and 2.4 mM,Show
same,proportion of worms: N2,"N2 non-transgenic worms; 2.4 mM, 20 min, Trials 3-4","20 min: 28% N2, and 20 min: 27% N2,"
same,proportion of worms: sluggish N2,"N2 non-transgenic worms; 4.71 mM, 30 min, Trial 2",30 min: 18%
same,proportion of worms: LOF,"N2 non-transgenic worms; 4.71 mM, 1 hr, Trials 1-2",1 hr: 100%
"CCOC(=O)C1=C(COCCN)NC(C)=C(C(=O)OC)C1c1ccccc1Cl (centres unmarked) [Amlodipine Besylate, Amlodipine]",proportion of worms: GOF,"[1]; 1.25 mM, 30 mins, Trial 4","rescue, 36% GOF."
same,proportion of worms: rescue,"[1]; 1.25 mM, 30 mins, Trial 4",30 mins: 64%
same,proportion of worms: GOF,"[1]; 1.25 mM, 1 hr, Trial 4",27%
same,proportion of worms: LOF,"[1]; 1.25 mM, 1 hr, Trial 4",9%
same,proportion of worms: rescue,"[1]; 1.25 mM, 1 hr, Trial 4","1 hr: 64% rescue,"
same,proportion of worms: “rescue” (slight but present),"N2 non-transgenic worms; 1.25 mM, 30 mins, Trial 4",30 mins: 50%
same,proportion of worms: WT(N2),"N2 non-transgenic worms; 1.25 mM, 1 hr, Trial 4",10% WT(N2).
same,proportion of worms: rescue,"N2 non-transgenic worms; 1.25 mM, 1 hr, Trial 4","1 hr: 90% rescue,"
same,effect on Outward K+ currents,Outward K+ currents,blocked
"COc1cc2c3cc1Oc1c(OC)c(OC)cc4c1[C@@H](Cc1ccc(O)c(c1)Oc1ccc(cc1)C[C@@H]3N(C)CC2)N(C)CC4 [Berbamine dihydrochloride, Berbamine]",proportion of worms: LOF,"[1]; 4.4 mM, 30 min, Trial 3","GOF, 25% LOF."
same,proportion of worms: rescue,"[1]; 4.4 mM, 30 min, Trials 1-3",30 min: 20% and 30 min: 70% and 30 min: 33%
same,proportion of worms: rescue,"[1]; 4.4 mM, 1 hr, Trial 1",1 hr: 50-60%
same,phenotype proportions at 1 hr compared with 30 min,"[1]; 4.4 mM, 1 hr, Trials 2-3",1 hr: no change.
same,response,"N2 non-transgenic worms; 4.4 mM, 30 min, Trial 1",30 min: No
same,proportion of worms: “rescue”,"N2 non-transgenic worms; 4.4 mM, 30 min, Trials 2-3",30 min: 70% and 30 min: 30%
same,phenotype proportions at 1 hr compared with 30 min,"N2 non-transgenic worms; 4.4 mM, 1 hr, Trial 3",1 hr: no change.
